System: IPOHE
Test: Post-emergence foliar-applied weed control, greenhouse (Example I);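 for Visual Weed Control (%) - 20 DAA IPOHE Obs: visual score 0 no injury to 100 complete kill versus untreated plants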
Format: in vivo, Ipomoea hederacea Jacq.
Text: Evaluation of Post-emergence Foliar-Applied Herbicidal Mixtures for Weed Control in Direct Seeded Rice
Seeds or nutlets of the desired test plant species were planted in a soil matrix prepared by mixing a loam or sandy loam soil (e.g., 28.6 percent silt, 18.8 percent clay, and 52.6 percent sand, with a pH of about 5.8 and an organic matter content of about 1.8 percent) and calcareous grit in an 80 to 20 ratio. The soil matrix was contained in plastic pots with a volume of 1 quart and a surface area of 83.6 square centimeters (cm^2). When required to ensure good germination and healthy plants, a fungicide treatment and/or other chemical or physical treatment was applied. The plants were grown for 8-22 days in a greenhouse with an approximate 14 h photoperiod which was maintained at about 29° C. during the day and 26° C. during the night. Nutrients (Peters Excel® 15-5-15 5-Ca 2-Mg and iron chelate) were applied in the irrigation solution as needed and water was added on a regular basis. Supplemental lighting was provided with overhead metal halide 1000-Watt lamps as necessary. The plants were employed for testing when they reached the first through fourth true leaf stage.
Treatments consisted of the acid or esters of 4-amino-3-chloro-5-fluoro-6-(4-chloro-2-fluoro-3-methoxy-phenyl)pyridine-2-carboxylic acid (Compound A), each formulated as an SC (suspension concentrate), and various herbicidal components alone and in combination. Forms of Compound A were applied on an acid equivalent basis.
Other herbicidal components were applied on an active ingredient basis and included 4-hydroxyphenyl pyruvate dioxygenase (HPPD)-inhibiting herbicides mesotrione formulated as Callisto®, sulcotrione formulated as Mikado®, pyrazolynate formulated as Sunbird® 10% GR, and benzobicyclon formulated as Benzobicyclon 3.5%.
Treatment requirements were calculated based upon the rates being tested, the concentration of active ingredient or acid equivalent in the formulation, and a 12 mL application volume at a rate of 187 L/ha.
For treatments comprised of formulated compounds, measured amounts of compounds were placed individually in 25 mL glass vials and diluted in a volume of 1.25% (v/v) Agri-Dex® crop oil concentrated to obtain 12× stock solutions. […] Application solutions were prepared by adding an appropriate amount of each stock solution (e.g., 1 mL) and diluted to the appropriate final concentrations with the addition of 10 mL of an aqueous mixture of 1.25% (v/v) crop oil concentrate so that the final spray solutions contained 1.25+/−0.05% (v/v) crop oil concentrate.
For treatments comprised of formulated and technical compounds, weighed amounts of the technical materials were placed individually in 25 mL glass vials and dissolved in a volume of 97:3 v/v acetone/DMSO to obtain 12× stock solutions, and measured amounts of the formulated compounds were placed individually in 25 mL glass vials and diluted in a volume of 1.5% (v/v) crop oil concentrate or water to obtain 12× stock solutions. […] Application solutions were prepared by adding an appropriate amount of each stock solution (e.g., 1 mL) and diluted to the appropriate final concentrations with the addition of an appropriate amount of an aqueous mixture of 1.5% (v/v) crop oil concentrate so that the final spray solutions contained 1.25% (v/v) crop oil concentrate. As required, additional water and/or 97:3 v/v acetone/DMSO was added to individual application solutions so that the final acetone and DMSO concentrations of the application solutions being compared were 8.1% and 0.25%, respectively.
All stock solutions and applications solutions were visually inspected for compound compatibility prior to application. Spray solutions were applied to the plant material with an overhead Mandel track sprayer equipped with a 8002E nozzles calibrated to deliver 187 L/ha over an application area of 0.503 m^2 at a spray height of 18 to 20 inches (46 to 50 cm) above average plant canopy height. […]

SMILES | Visual Weed Control (%) - 20 DAA IPOHE Obs (4.38 gae/ha) | Visual Weed Control (%) - 20 DAA IPOHE Obs (8.75 gae/ha) | Visual Weed Control (%) - 20 DAA IPOHE Obs (17.5 gae/ha) | Visual Control (%) - 20 DAA IPOHE Obs (4.38 gae/ha) | Visual Control (%) - 20 DAA IPOHE Obs (8.75 gae/ha) | Visual Control (%) - 20 DAA IPOHE Obs (17.5 gae/ha) | Visual Weed Control (%) - 21 DAA IPOHE Obs (17.5 gae/ha) | Visual Weed Control (%) - 21 DAA IPOHE Obs (35 gae/ha)
COc1c(Cl)ccc(-c2nc(C(=O)OCc3ccccc3)c(Cl)c(N)c2F)c1F [Compound A Benzyl Ester, benzyl ester of 4-amino-3-chloro-5-fluoro-6-(4-chloro-2-fluoro-3-methoxy-phenyl)pyridine-2-carboxylic acid] | 10% | 10% | 20% | – | – | – | – | –
COc1c(Cl)ccc(-c2nc(C(=O)O)c(Cl)c(N)c2F)c1F [Compound A Acid, 4-amino-3-chloro-6-(4-chloro-2-fluoro-3-methoxyphenyl)-5-fluoropyridine-2-carboxylic acid] | – | – | – | 10% | 35% | 40% | 25% | 48%

Source: patent publication US8841233B2, “Herbicidal compositions comprising 4-amino-3-chloro-5-fluoro-6-(4-chloro-2-fluoro-3-methoxyphenyl) pyridine-2-carboxylic acid or a derivative thereof and 4-hydroxyphenyl-pyruvate dioxygenase (HPPD) inhibitors” (Dow Agrosciences LLC, priority 2012, dated 2014)
